# Read-outs that look alike come from different tables or passages of the source.
# Assays:
# [1] = UV-Vis and PCA based sterol sponge binding assay; conditions: apparent KD, sterol sponge aggregates in vitro
# Description: However, an alternative method was developed for reproducible formation of homogenous AmB and C2′epiAmB sterol sponge aggregates in vitro. Using these preparations, a quantitative UV-Vis and Principle Component (PCA) based assay for determining the apparent Kis for the binding of AmB and C2′epiAmB to ergosterol and cholesterol (FIGS. 2A-2D) was developed.
# A. flavus ATCC 204304 = experiment: Checkerboard broth microdilution (CLSI); assay type: cell-based; conditions: isolate ATCC 204304; for MIC: Aspergillus flavus, ATCC204304, single agent
# Experimental: (§1) Isolates were tested against varying concentrations of amphotericin B and C2′epiAmB (range, 0.06 to 4 mg/L) and combined with fluconazole (range, 0.12 to 128 mg/L) or ketoconazole (range 0.008 to 8 mg/L) or voriconazole (range, 0.004 to 4 mg/L) using a checkerboard grid design following the Clinical and Laboratory Standards Institute (CLSI) broth microdilution method (M23Ed5).
# C. tropicalis 1046709 = experiment: Checkerboard broth microdilution (CLSI); assay type: cell-based; conditions: isolate 1046709; for MIC: Candida tropicalis, single agent
# Experimental: as §1
# [2] = tested on: A. fumigatus ATCC MYA-3626; experiment: Checkerboard broth microdilution (CLSI); assay type: cell-based; conditions: isolate ATCC MYA-3626; for MIC: single agent
# Experimental: as §1
# C. albicans 967374 = experiment: Checkerboard broth microdilution (CLSI); assay type: cell-based; conditions: isolate 967374; for MIC: single agent
# Experimental: as §1
# C. auris 1081160 = experiment: Checkerboard broth microdilution (CLSI); assay type: cell-based; conditions: isolate 1081160; for MIC: Candidozyma auris, single agent
# Experimental: as §1
# C. parapsilosis 1048737 = experiment: Checkerboard broth microdilution (CLSI); assay type: cell-based; conditions: isolate 1048737; for MIC: single agent
# Experimental: as §1
# F. oxysporum SC 1087597 = experiment: Checkerboard broth microdilution (CLSI); assay type: cell-based; conditions: isolate 1087597; for MIC: Fusarium oxysporum, single agent
# Experimental: as §1
# F. solani SC 1047542 = experiment: Checkerboard broth microdilution (CLSI); assay type: cell-based; conditions: isolate 1047542; for MIC: Fusarium solani, single agent
# Experimental: as §1
# A. flavus SC 1085986 = experiment: Checkerboard broth microdilution (CLSI); assay type: cell-based; conditions: isolate 1085986; for MIC: Aspergillus flavus, single agent
# Experimental: as §1
# A. fumigatus 1077391 = experiment: Checkerboard broth microdilution (CLSI); assay type: cell-based; conditions: isolate 1077391; for MIC: Aspergillus fumigatus, single agent
# Experimental: as §1
# C. krusei ATCC 6258 = experiment: Checkerboard broth microdilution (CLSI); assay type: cell-based; conditions: isolate ATCC 6258
# Experimental: as §1
# [3] = tested on: C. parapsilosis ATCC 22019; experiment: Checkerboard broth microdilution (CLSI); assay type: cell-based; conditions: isolate ATCC 22019
# Experimental: as §1
# C. glabrata 1046695 = experiment: Checkerboard broth microdilution (CLSI); assay type: cell-based; conditions: isolate 1046695; for MIC: Nakaseomyces glabratus, single agent
# Experimental: as §1
# C. krusei 975691 = experiment: Checkerboard broth microdilution (CLSI); assay type: cell-based
# Experimental: as §1
# yeast cells = experiment: Antifungal activity after ergosterol pre-complexation of the sponge; assay type: cell-based; conditions: sponge pre-complexed with ergosterol
# Description: Anderson, T. M. et al., Nat Chem Biol 2014, 10 (5), 400-6. […] Davis, S. A., et al., Nat Chem Biol 2015, 11 (7), 481-7. To test whether C2′epiAmB primarily kills cells via the same sterol sponge mechanism, the C2′epiAmB sponge was similarly pre-complexed with ergosterol. […] Thus, C2′epiAmB similarly kills yeast primarily via sterol binding, and, by extension, the new compounds targeted in this application are expected to have a similar barrier to fungal resistance that has been observed for the past 50+years with AmB.
# Candida albicans SN250 = experiment: MIC against Candida albicans SN250; assay type: cell-based
# [4] = Aspergillus fumigatus, read-out: MIC
# [5] = Candida albicans, read-out: MIC
# [6] = Lodderomyces parapsilosis, read-out: MIC
# [7] = Pichia kudriavzevii, ATCC6258, single agent, read-out: MIC
# [8] = Pichia kudriavzevii, single agent, isolate 975691, read-out: MIC
# [9] = Lodderomyces parapsilosis, ATCC22019, single agent, read-out: MIC
structure (smiles),measurement,setting,value
"C[C@@H]1[C@H](O)[C@@H](C)/C=C/C=C/C=C/C=C/C=C/C=C/C=C/[C@H](O[C@@H]2O[C@H](C)[C@@H](O)[C@H](N)[C@@H]2O)C[C@@H]2O[C@](O)(C[C@@H](O)C[C@@H](O)[C@H](O)CC[C@@H](O)C[C@@H](O)CC(=O)O[C@H]1C)C[C@H](O)[C@H]2C(=O)O [AmB, Amphotericin B]",Kd,"[1]; read-out: KD,chol",840 nM
same,Kd,"[1]; read-out: KD,erg",120 nM
same,MIC,A. flavus ATCC 204304,1 µg/mL
same,MIC when added 1 log2 unit lower of azoles' MIC,A. flavus ATCC 204304; with ketoconazole,1 mg/L
same,MIC when added 1 log2 unit lower of azoles' MIC,A. flavus ATCC 204304; with voriconazole,0.5 mg/L
same,MIC,C. tropicalis 1046709,0.5 µg/mL
same,MIC when added 1 log2 unit lower of azoles' MIC,C. tropicalis 1046709; with fluconazole,0.25 mg/L
same,MIC when added 1 log2 unit lower of azoles' MIC,C. tropicalis 1046709; with ketoconazole,0.5 mg/L
same,MIC when added 1 log2 unit lower of azoles' MIC,C. tropicalis 1046709; with voriconazole,0.5 mg/L
same,MIC,[2]; [4],1 µg/mL
same,MIC when added 1 log2 unit lower of azoles' MIC,[2]; with ketoconazole,2 mg/L
same,MIC when added 1 log2 unit lower of azoles' MIC,[2]; with voriconazole,1 mg/L
same,MIC,C. albicans 967374; [5],0.5 µg/mL
same,MIC,C. albicans 967374,1 µg/mL
same,MIC when added 1 log2 unit lower of azoles' MIC,C. albicans 967374; with fluconazole,0.5 mg/L
same,MIC when added 1 log2 unit lower of azoles' MIC,C. albicans 967374; with ketoconazole,0.5 mg/L
same,MIC when added 1 log2 unit lower of azoles' MIC,C. albicans 967374; with voriconazole,0.5 mg/L
same,MIC,C. auris 1081160; read-out: MIC,1 µg/mL
same,MIC when added 1 log2 unit lower of azoles' MIC,C. auris 1081160; with fluconazole,0.06 mg/L
same,MIC when added 1 log2 unit lower of azoles' MIC,C. auris 1081160; with ketoconazole,1 mg/L
same,MIC when added 1 log2 unit lower of azoles' MIC,C. auris 1081160; with voriconazole,1 mg/L
same,MIC,C. parapsilosis 1048737; [6],0.5 µg/mL
same,MIC when added 1 log2 unit lower of azoles' MIC,C. parapsilosis 1048737; with fluconazole,0.25 mg/L
same,MIC when added 1 log2 unit lower of azoles' MIC,C. parapsilosis 1048737; with ketoconazole,0.25 mg/L
same,MIC when added 1 log2 unit lower of azoles' MIC,C. parapsilosis 1048737; with voriconazole,0.25 mg/L
same,MIC,F. oxysporum SC 1087597,2 µg/mL
same,MIC when added 1 log2 unit lower of azoles' MIC,F. oxysporum SC 1087597; with ketoconazole,0.06 mg/L
same,MIC when added 1 log2 unit lower of azoles' MIC,F. oxysporum SC 1087597; with voriconazole,2 mg/L
same,MIC,F. solani SC 1047542,2 µg/mL
same,MIC when added 1 log2 unit lower of azoles' MIC,F. solani SC 1047542; with ketoconazole,0.06 mg/L
same,MIC when added 1 log2 unit lower of azoles' MIC,F. solani SC 1047542; with voriconazole,2 mg/L
same,MIC,A. flavus SC 1085986,2 µg/mL
same,MIC when added 1 log2 unit lower of azoles' MIC,A. flavus SC 1085986; with ketoconazole,1 mg/L
same,MIC when added 1 log2 unit lower of azoles' MIC,A. flavus SC 1085986; with voriconazole,2 mg/L
same,MIC,A. fumigatus 1077391,1 µg/mL
same,MIC when added 1 log2 unit lower of azoles' MIC,A. fumigatus 1077391; with ketoconazole,0.06 mg/L
same,MIC when added 1 log2 unit lower of azoles' MIC,A. fumigatus 1077391; with voriconazole,1 mg/L
same,MIC,C. krusei ATCC 6258; [7],0.5 µg/mL
same,MIC,C. krusei ATCC 6258; single agent,1 µg/mL
same,MIC when added 1 log2 unit lower of azoles' MIC,C. krusei ATCC 6258; with fluconazole,0.5 mg/L
same,MIC when added 1 log2 unit lower of azoles' MIC,C. krusei ATCC 6258; with ketoconazole,0.5 mg/L
same,MIC when added 1 log2 unit lower of azoles' MIC,C. krusei ATCC 6258; with voriconazole,0.5 mg/L
same,MIC when added 1 log2 unit lower of azoles' MIC,[3]; with fluconazole,0.25 mg/L
same,MIC when added 1 log2 unit lower of azoles' MIC,[3]; with ketoconazole,0.25 mg/L
same,MIC when added 1 log2 unit lower of azoles' MIC,[3]; with voriconazole,0.5 mg/L
same,MIC,C. glabrata 1046695; read-out: MIC,0.5 µg/mL
same,MIC when added 1 log2 unit lower of azoles' MIC,C. glabrata 1046695; with fluconazole,0.5 mg/L
same,MIC when added 1 log2 unit lower of azoles' MIC,C. glabrata 1046695; with ketoconazole,0.06 mg/L
same,MIC when added 1 log2 unit lower of azoles' MIC,C. glabrata 1046695; with voriconazole,0.5 mg/L
same,MIC,C. krusei 975691; [8],1 µg/mL
same,MIC,"C. krusei 975691; single agent, isolate 975691",0.5 µg/mL
same,MIC when added 1 log2 unit lower of azoles' MIC,"C. krusei 975691; with fluconazole, isolate 975691",0.5 mg/L
same,MIC when added 1 log2 unit lower of azoles' MIC,"C. krusei 975691; with ketoconazole, isolate 975691",0.5 mg/L
same,MIC when added 1 log2 unit lower of azoles' MIC,"C. krusei 975691; with voriconazole, isolate 975691",0.5 mg/L
same,change of potency upon ergosterol pre-complexation,yeast cells,same reduction in potency
same,MIC,Candida albicans SN250,0.15 µM
"OC(Cn1cncn1)(Cn1cncn1)c1ccc(F)cc1F [Fluconazole, fluconazole]",MIC,C. tropicalis 1046709,4 µg/mL
same,MIC,C. albicans 967374; [5],16 µg/mL
same,MIC,C. auris 1081160,> 128 µg/mL
same,MIC,C. parapsilosis 1048737; [6],0.5 µg/mL
same,MIC,C. parapsilosis 1048737,1 µg/mL
same,MIC,C. krusei ATCC 6258; [7],32 µg/mL
same,MIC,[3]; [9],1 µg/mL
same,MIC,[3]; single agent,2 µg/mL
same,MIC,C. glabrata 1046695,128 µg/mL
same,MIC,C. krusei 975691; Pichia kudriavzevii,128 µg/mL
"CC(=O)N1CCN(c2ccc(OCC3COC(Cn4ccnc4)(c4ccc(Cl)cc4Cl)O3)cc2)CC1 (centres unmarked) [Ketoconazole, ketoconazole]",MIC,A. flavus ATCC 204304,2 µg/mL
same,MIC,C. tropicalis 1046709,0.12 µg/mL
same,MIC,[2]; [4],8 µg/mL
same,MIC,[2],>8 µg/mL
same,MIC,C. albicans 967374; [5],0.25 µg/mL
same,MIC,C. auris 1081160; read-out: MIC,0.5 µg/mL
same,MIC,C. parapsilosis 1048737; [6],0.015 µg/mL
same,MIC,C. parapsilosis 1048737,0.03 µg/mL
same,MIC,F. oxysporum SC 1087597,> 8 µg/mL
same,MIC,F. solani SC 1047542,> 8 µg/mL
same,MIC,A. flavus SC 1085986,4 µg/mL
same,MIC,A. fumigatus 1077391,> 8 µg/mL
same,MIC,C. krusei ATCC 6258; [7],0.25 µg/mL
same,MIC,[3]; [9],0.06 µg/mL
same,MIC,C. glabrata 1046695; read-out: MIC,4 µg/mL
same,MIC,C. krusei 975691; [8],1 µg/mL
same,MIC,"C. krusei 975691; single agent, isolate 975691",2 µg/mL
"C[C@@H](c1ncncc1F)[C@](O)(Cn1cncn1)c1ccc(F)cc1F [Voriconazole, voriconazole]",MIC,A. flavus ATCC 204304,1 µg/mL
same,MIC,C. tropicalis 1046709,0.12 µg/mL
same,MIC,[2]; [4],0.5 µg/mL
same,MIC,C. albicans 967374; [5],0.25 µg/mL
same,MIC,C. auris 1081160; read-out: MIC,1 µg/mL
same,MIC,C. parapsilosis 1048737; [6],0.008 µg/mL
same,MIC,C. parapsilosis 1048737,0.015 µg/mL
same,MIC,F. oxysporum SC 1087597,4 µg/mL
same,MIC,F. solani SC 1047542,4 µg/mL
same,MIC,A. flavus SC 1085986,1 µg/mL
same,MIC,A. fumigatus 1077391,2 µg/mL
same,MIC,C. krusei ATCC 6258; [7],0.25 µg/mL
same,MIC,[3]; [9],0.03 µg/mL
same,MIC,C. glabrata 1046695; read-out: MIC,4 µg/mL
same,MIC,C. krusei 975691; [8],4 µg/mL

# Reference: patent US20220370486A1, “COMBINATION TREATMENT OF SYSTEMIC FUNGAL INFECTIONS” (The Board of Trustees of the University of Illinois, priority 2019, published 2022)
